This passage reports DC50 results from patent US12161722B2, “Bifunctional heterocyclic compound having BTK degradation function via ubiquitin proteasome pathway, and use thereof” (KOREA RESEARCH INSTITUTE OF CHEMICAL TECHNOLOGY, priority 2021, dated 2024).

The structures appear in SMILES notation.

This assay deals with T1, WT BTK protein (Homo sapiens, UniProt Q06187).
T1 construct: measured for intracellular BTK protein levels by Western blotting; endogenous in cells; host or cells: TMD-8 or RAMOS cells
T1 sequence (Q06187 whole entry): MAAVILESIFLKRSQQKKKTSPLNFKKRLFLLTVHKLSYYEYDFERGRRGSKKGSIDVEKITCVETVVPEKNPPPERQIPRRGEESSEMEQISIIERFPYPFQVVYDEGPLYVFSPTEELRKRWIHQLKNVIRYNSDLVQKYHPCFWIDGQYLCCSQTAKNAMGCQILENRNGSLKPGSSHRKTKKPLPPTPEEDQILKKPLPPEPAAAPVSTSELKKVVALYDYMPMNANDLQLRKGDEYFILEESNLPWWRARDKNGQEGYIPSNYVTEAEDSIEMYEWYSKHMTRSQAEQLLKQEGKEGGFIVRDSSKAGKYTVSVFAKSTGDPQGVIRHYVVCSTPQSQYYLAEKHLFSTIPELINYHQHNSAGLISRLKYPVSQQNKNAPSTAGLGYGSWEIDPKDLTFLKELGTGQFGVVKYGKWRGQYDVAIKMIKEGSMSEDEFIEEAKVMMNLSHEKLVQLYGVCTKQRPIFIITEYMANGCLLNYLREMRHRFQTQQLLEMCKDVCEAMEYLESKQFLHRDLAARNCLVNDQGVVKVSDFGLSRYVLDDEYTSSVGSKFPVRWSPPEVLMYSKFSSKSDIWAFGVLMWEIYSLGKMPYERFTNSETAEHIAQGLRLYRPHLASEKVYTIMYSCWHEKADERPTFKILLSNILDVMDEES
Briefly: BTK protein degradation assay (Western blotting), WT BTK. In kind it is cell-based. The conditions noted are these: concentration range accounting for 50% degradation of WT BTK protein, TMD-8 or RAMOS cells, 24 hours. In a few lines:
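BTK levels were read by Western blotting (GAPDH and β-actin normalisers) in RIPA lysates of TMD-8 cells exposed to compounds for 24 h at 1×10^6 cells/mL. Results scored in ranges of the concentration producing 50% loss of WT BTK.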
In the case of `Cc1cccc(C)c1Nc1nn(C)c2nc(Nc3ccc4c(c3)CN(CC3(O)CCN(c5ccc6c(c5)C(=O)N(C5CCC(=O)NC5=O)C6=O)CC3)CC4)ncc12` (stereo not shown) [Compound 130, 5-(4-((7-((3-((2,6-dimethylphenyl)amino)-1-methyl-1H-pyrazolo[3,4-d]pyrimidin-6-yl)amino)-3,4-dihydroisoquinolin-2 (1H)-yl)methyl)-4-hydroxypiperidin-1-yl)-2-(2,6-dioxopiperidin-3-yl)isoindoline-1,3-dione], the DC50 is 0.1 to 10 nM.

Take `Cc1cccc(C)c1Nc1nn(C)c2nc(Nc3ccc4c(c3)CN(CC3CCN(C(=O)CNc5cc6c(cc5F)C(=O)N(C5CCC(=O)NC5=O)C6=O)CC3)CC4)ncc12` (stereo not shown) [Compound 211, 5-((2-(4-((7-((3-((2,6-Dimethylphenyl)amino)-1-methyl-1H-pyrazolo[3,4-d]pyrimidin-6-yl)amino)-3,4-dihydroisoquinolin-2 (1H)-yl)methyl)piperidin-1-yl)-2-oxoethyl)amino)-2-(2,6-dioxopiperidin-3-yl)-6-fluoroisoindoline-1,3-dione]: the half-maximal degradation concentration (DC50) was 0.1 to 10 nM. For the molecule `COc1ccc(C(=O)N2CCC(CC(=O)N3CCc4ccc(Nc5ncc6c(Nc7c(C)cccc7C)nn(C)c6n5)cc4C3)CC2)cc1N1CCC(=O)NC1=O` [Compound 112, 1-(5-(4-(2-(7-((3-((2,6-Dimethylphenyl)amino)-1-methyl-1H-pyrazolo[3,4-d]pyrimidin-6-yl)amino)-3,4-dihydroisoquinolin-2 (1H)-yl)-2-oxoethyl)piperidine-1-carbonyl)-2-methoxyphenyl)dihydropyrimidine-2,4 (1H,3H)-dione], the DC50 was 1000 to 10000 nM.

Take `Cc1cccc(C)c1Nc1nn(C)c2nc(Nc3ccc4c(c3)CN(C(=O)C3(F)CCN(c5cc6c(cc5F)C(=O)N(C5CCC(=O)NC5=O)C6=O)CC3)CC4)ncc12` (stereo not shown) [Compound 244, 5-(4-(7-((3-((2,6-dimethylphenyl)amino)-1-methyl-1H-pyrazolo[3,4-d]pyrimidin-6-yl)amino)-1,2,3,4-tetrahydroisoquinoline-2-carbonyl)-4-fluoropiperidin-1-yl)-2-(2,6-dioxopiperidin-3-yl)-6-fluoroisoindoline-1,3-dione]: the DC50 lay in the range of 0.1 to 10 nM. As for `Cc1cccc(C)c1Nc1nn(C)c2nc(Nc3ccc4c(c3)CN(CC3CCN(c5ccc6c(c5)CN(C5CCC(=O)NC5=O)C6=O)CC3)CC4)ncc12` (stereo not shown) [Compound 237, 3-(5-(4-((7-((3-((2,6-Dimethylphenyl)amino)-1-methyl-1H-pyrazolo[3,4-d]pyrimidin-6-yl)amino)-3,4-dihydroisoquinolin-2 (1H)-yl)methyl)piperidin-1-yl)-1-oxoisoindolin-2-yl)piperidin-2,6-one], the figure is 0.1 to 10 nM; as for `Cc1cccc(C)c1Nc1nn(C)c2nc(Nc3cnc(N4CCN(CC5CCN(c6ccc7c(c6)C(=O)N(C6CCC(=O)NC6=O)C7=O)CC5)CC4)nc3)ncc12` (stereo not shown) [Compound 171, 5-(4-((4-(5-((3-((2,6-Dimethylphenyl)amino)-1-methyl-1H-pyrazolo[3,4-d]pyrimidin-6-yl)amino)pyrimidin-2-yl)piperazin-1-yl)methyl)piperidin-1-yl)-2-(2,6-dioxopiperidin-3-yl)isoindoline-1,3-dione], 0.1 to 10 nM; as for `Cc1cccc(C)c1Nc1nn(C)c2nc(Nc3ccc(CCNC(=O)C4CCN(C(=O)Nc5ccc6c(c5)CN(C5CCC(=O)NC5=O)C6=O)CC4)cc3)ncc12` (stereo not shown) [Compound 102, N4-(4-((3-((2,6-Dimethylphenyl)amino)-1-methyl-1H-pyrazolo[3,4-d]pyrimidin-6-yl)amino)phenethyl)-N1-(2-(2,6-dioxopiperidin-3-yl)-1-oxoisoindolin-5-yl)piperidine-1,4-dicarboxamide], 10 to 1000 nM. In the case of `Cc1cccc(C)c1Nc1nn(C)c2nc(Nc3ccc4c(c3)CN(C(=O)/C(C#N)=C/C3CCN(C(=O)COc5ccc6c(c5)C(=O)N(C5CCC(=O)NC5=O)C6=O)CC3)CC4)ncc12` (stereo not shown) [Compound 241, (E)-2-(7-((3-((2,6-dimethylphenyl)amino)-1-methyl-1H-pyrazolo[3,4-d]pyrimidin-6-yl)amino)-1,2,3,4-tetrahydroisoquinoline-2-carbonyl)-3-(1-(2-((2-(2,6-dioxopiperidin-3-yl)-1,3-dioxoisoindolin-5-yl)oxy)acetyl)piperidin-4-yl)acrylonitrile] it was 0.1 to 10 nM.

Consider `Cc1cccc(C)c1Nc1nn(C)c2nc(Nc3ccc4c(c3)CN(CC(=O)NC3CCN(c5ccc6c(c5)C(=O)N(C5CCC(=O)NC5=O)C6=O)CC3)CC4)ncc12` (stereo not shown) [Compound 97, 2-(7-((3-((2,6-dimethylphenyl)amino)-1-methyl-1H-pyrazolo[3,4-d]pyrimidin-6-yl)amino)-3,4-dihydroisoquinolin-2 (1H)-yl)-N-(1-(2-(2,6-dioxopiperidin-3-yl)-1,3-dioxoisoindolin-5-yl)piperidin-4-yl)acetamide], for which the DC50 is 0.1 to 10 nM. In the case of `Cc1cccc(C)c1Nc1nn(C)c2nc(Nc3ccc4c(c3)CN(C(=O)CCC3CCN(c5ccc6c(c5)C(=O)N(C5CCC(=O)NC5=O)C6=O)CC3)CC4)ncc12` (stereo not shown) [Compound 126, 5-(4-(3-(7-((3-((2,6-Dimethylphenyl)amino)-1-methyl-1H-pyrazolo[3,4-d]pyrimidin-6-yl)amino)-3,4-dihydroisoquinolin-2 (1H)-yl)-3-oxopropyl)piperidin-1-yl)-2-(2,6-dioxopiperidin-3-yl)isoindoline-1,3-dione], the DC50 was 0.1 to 10 nM.

Take `Cc1cccc(C)c1Nc1nn(C)c2nc(Nc3ccc4c(c3)CN(CC3CN(c5ccc6c(c5)C(=O)N(C5CCC(=O)NC5=O)C6=O)C3)CC4)ncc12` (stereo not shown) [Compound 47, 5-(3-((7-((3-((2,6-Dimethylphenyl)amino)-1-methyl-1H-pyrazolo[3,4-d]pyrimidin-6-yl)amino)-3,4-dihydroisoquinolin-2 (1H)-yl)methyl)azetidin-1-yl)-2-(2,6-dioxopiperidin-3-yl)isoindoline-1,3-dione]: the half-maximal degradation concentration (DC50) fell in the range of 0.1 to 10 nM. With `Cc1cccc(C)c1Nc1nn(C)c2nc(Nc3ccc4c(c3)CN(CCC3(O)CCN(c5ccc6c(c5)C(=O)N(C5CCC(=O)NC5=O)C6=O)CC3)CC4)ncc12` (stereo not shown) [Compound 131, 5-(4-(2-(7-((3-((2,6-Dimethylphenyl)amino)-1-methyl-1H-pyrazolo[3,4-d]pyrimidin-6-yl)amino)-3,4-dihydroisoquinolin-2 (1H)-yl)ethyl)-4-hydroxypiperidin-1-yl)-2-(2,6-dioxopiperidin-3-yl)isoindoline-1,3-dione], the DC50 fell in the range of 0.1 to 10 nM.

In the case of `Cc1cccc(C)c1Nc1nn(C)c2nc(Nc3ccc4c(c3)CN(C(=O)COC3CCN(c5ccc6c(c5)C(=O)N(C5CCC(=O)NC5=O)C6=O)CC3)CC4)ncc12` (stereo not shown) [Compound 127, 5-(4-(2-(7-((3-((2,6-Dimethylphenyl)amino)-1-methyl-1H-pyrazolo[3,4-d]pyrimidin-6-yl)amino)-3,4-dihydroisoquinolin-2 (1H)-yl)-2-oxoethoxy)piperidin-1-yl)-2-(2,6-dioxopiperidin-3-yl)isoindoline-1,3-dione], the DC50 was 0.1 to 10 nM. `Cc1cccc(C)c1Nc1nn(C)c2nc(Nc3ccc(C4CN(C[C@@H]5CCN(c6ccc7c(c6)C(=O)N(C6CCC(=O)NC6=O)C7=O)C5)C4)cc3)ncc12` (stereo partly drawn) [Compound 177, 5-((S)-3-((3-(4-((3-((2,6-Dimethylphenyl)amino)-1-methyl-1H-pyrazolo[3,4-d]pyrimidin-6-yl)amino)phenyl)azetidin-1-yl)methyl)pyrrolidin-1-yl)-2-(2,6-dioxopiperidin-3-yl)isoindoline-1,3-dione]: the DC50 lay within 0.1 to 10 nM.

Turning to `Cc1cc(F)ccc1Nc1nn(C)c2nc(Nc3ccc4c(c3)CN(CC3CCN(c5ccc6c(c5)C(=O)N(C5CCC(=O)NC5=O)C6=O)CC3)CC4)ncc12` (stereo not shown) [Compound 121, 2-(2,6-Dioxopiperidin-3-yl)-5-(4-((7-((3-((4-fluoro-2-methylphenyl)amino)-1-methyl-1H-pyrazolo[3,4-d]pyrimidin-6-yl)amino)-3,4-dihydroisoquinolin-2 (1H)-yl)methyl)piperidin-1-yl)isoindoline-1,3-dione], the DC50 fell in the range of 10 to 1000 nM. Turning to `Cc1cccc(C)c1Nc1nn(C)c2nc(Nc3ccc4c(c3)CN(CC3(NC(=O)COc5ccc6c(c5)C(=O)N(C5CCC(=O)NC5=O)C6=O)CC3)CC4)ncc12` (stereo not shown) [Compound 205, N-(1-((7-((3-((2,6-dimethylphenyl)amino)-1-methyl-1H-pyrazolo[3,4-d]pyrimidin-6-yl)amino)-3,4-dihydroisoquinolin-2 (1H)-yl)methyl)cyclopropyl)-2-((2-(2,6-dioxopiperidin-3-yl)-1,3-dioxoisoindolin-5-yl)oxy)acetamide], the DC50 fell in the range of 10 to 1000 nM. With `Cc1ccc(Nc2nn(C)c3nc(Nc4ccc5c(c4)CN(CC4CCN(c6ccc7c(c6)C(=O)N(C6CCC(=O)NC6=O)C7=O)CC4)CC5)ncc23)c(C)c1` (stereo not shown) [Compound 83, 5-(4-((7-((3-((2,4-Dimethylphenyl)amino)-1-methyl-1H-pyrazolo[3,4-d]pyrimidin-6-yl)amino)-3,4-dihydroisoquinolin-2 (1H)-yl)methyl)piperidin-1-yl)-2-(2,6-dioxopiperidin-3-yl)isoindoline-1,3-dione], the DC50 fell in the range of 10 to 1000 nM. As for `Cc1cccc(C)c1Nc1nn(C)c2nc(Nc3ccc(N4CCN(c5cc6c(cc5F)C(=O)N(C5CCC(=O)NC5=O)C6=O)CC4)cc3)ncc12` (stereo not shown) [Compound 239, 5-(4-(4-((3-((2,6-Dimethylphenyl)amino)-1-methyl-1H-pyrazolo[3,4-d]pyrimidin-6-yl)amino)phenyl)piperazin-1-yl)-2-(2,6-dioxopiperidin-3-yl)-6-fluoroisoindoline-1,3-dione], the figure is 10 to 1000 nM. Take `Cc1cccc(C)c1Nc1nn(C)c2nc(Nc3ccc4c(c3)CN(C(=O)C3CCN(c5ccc6c(c5)C(=O)N(C5CCC(=O)NC5=O)C6=O)C3)CC4)ncc12` (stereo not shown) [Compound 66]: the DC50 was 10 to 1000 nM.
